From patent publication US11220488B2, “Crystalline polymorph of Ponesimod” (TEVA PHARMACEUTICALS INTERNATIONAL GMBH, priority 2017, dated 2022)
Values after ≈ are worked out from the molar mass of the structure shown. Each block holds one compound with its values, some of them ahead of it.

Test: Solubility measurement by dissolution apparatus, Ponesimod content by liquid chromatography
Type: physicochemical
Experimental: The solubility for Ponesimod Form T1, according to this invention, Ponesimod Form A and Form C (described in PCT application WO 2010/046835) was measured by using Dissolution apparatus (Lab India DS8000) at 37° C. Buffers at pH. 1.2, 4.5 and 6.8 were prepared as per the USP 36 Solutions/Buffer Solutions 1209. About 200 mg of Ponesimod Form T1, 150 mg of Ponesimod Forms A and C were added to the 100 mL buffer (pH 1.2, 4.5 and 6.8) in individual flasks to obtain saturated suspension and the suspension was stirred with 250 rpm for 24 hours. Suspension was observed though out stirring period. Samples were drawn at different intervals on completion of 15 mins, 30 mins, 45 mins, 1 hrs, 2 hrs, 3 hrs, 4 hrs and 24 hrs from each flask and filtered through 0.45μ PTFE filter, each solution was analyzed for Ponesimod content by liquid chromatography.

solubility at 45 min (pH 1.2 buffer (USP), 37 °C, pH 1.2, simulated gastric fluid, thermodynamic from solid, pH 1.2 buffer, 45 Min): 120 µg/mL (≈ 260 µM)
solubility at 60 min (pH 1.2 buffer (USP), 37 °C, pH 1.2, simulated gastric fluid, thermodynamic from solid, pH 1.2 buffer, 60 Min): 120 µg/mL (≈ 260 µM)
Solubility results at pH = 1.2 (pH 1.2 buffer, 37° C., 2 Hrs, listed as A): 0.11 mg/ml
Solubility results at pH = 1.2 (pH 1.2 buffer, 37° C., 3 Hrs, listed as A): 0.11 mg/ml
Solubility results at pH = 1.2 (pH 1.2 buffer, 37° C., 4 Hrs, listed as A): 0.11 mg/ml
Solubility results at pH = 1.2 (pH 1.2 buffer, 37° C., 30 Min, listed as A): 0.13 mg/ml
SMILES: CCC/N=C1\S/C(=C\c2ccc(OC[C@H](O)CO)c(Cl)c2)C(=O)N1c1ccccc1C [Form A, (R)-5-[3-chloro-4-(2,3-dihydroxy-propoxy)-benz[Z]ylidene]-2-([Z]-propylimino)-3-o-tolyl-thiazolidin-4-one]

Solubility results at pH = 1.2 (pH 1.2 buffer, 37° C., 2 Hrs, listed as C): 0.09 mg/ml
Solubility results at pH = 1.2 (pH 1.2 buffer, 37° C., 3 Hrs, listed as C): 0.11 mg/ml
Solubility results at pH = 1.2 (pH 1.2 buffer, 37° C., 4 Hrs, listed as C): 0.12 mg/ml
Solubility results at pH = 1.2 (pH 1.2 buffer, 37° C., 15 Min, listed as C): 0.05 mg/ml
Solubility results at pH = 1.2 (pH 1.2 buffer, 37° C., 24 Hrs, listed as C): 0.15 mg/ml
Solubility results at pH = 1.2 (pH 1.2 buffer, 37° C., 30 Min, listed as C): 0.06 mg/ml
Solubility results at pH = 1.2 (pH 1.2 buffer, 37° C., 45 Min, listed as C): 0.07 mg/ml
Solubility results at pH = 1.2 (pH 1.2 buffer, 37° C., 60 Min, listed as C): 0.08 mg/ml
SMILES: CCC/N=C1\S/C(=C\c2ccc(OC[C@H](O)CO)c(Cl)c2)C(=O)N1c1ccccc1C [Form C, (R)-5-[3-chloro-4-(2,3-dihydroxy-propoxy)-benz[Z]ylidene]-2-([Z]-propylimino)-3-o-tolyl-thiazolidin-4-one]

Solubility compared to other known crystalline polymorphs of Ponesimod (comparison in words): higher solubility
Solubility results at pH = 1.2 (pH 1.2 buffer, 37° C., 2 Hrs, listed as T1): 0.24 mg/ml
Solubility results at pH = 1.2 (pH 1.2 buffer, 37° C., 3 Hrs, listed as T1): 0.29 mg/ml
Solubility results at pH = 1.2 (pH 1.2 buffer, 37° C., 4 Hrs, listed as T1): 0.31 mg/ml
Solubility results at pH = 1.2 (pH 1.2 buffer, 37° C., 15 Min, listed as T1): 0.07 mg/ml
Solubility results at pH = 1.2 (pH 1.2 buffer, 37° C., 24 Hrs, listed as T1): 0.40 mg/ml
Solubility results at pH = 1.2 (pH 1.2 buffer, 37° C., 30 Min, listed as T1): 0.09 mg/ml
Solubility results at pH = 1.2 (pH 1.2 buffer, 37° C., 45 Min, listed as T1): 0.12 mg/ml
Solubility results at pH = 1.2 (pH 1.2 buffer, 37° C., 60 Min, listed as T1): 0.15 mg/ml
SMILES: CCC/N=C1\S/C(=C\c2ccc(OC[C@H](O)CO)c(Cl)c2)C(=O)N1c1ccccc1C [Form T1, (R)-5-[3-chloro-4-(2,3-dihydroxy-propoxy)-benz[Z]ylidene]-2-([Z]-propylimino)-3-o-tolyl-thiazolidin-4-one]

Solubility at higher pH conditions (higher pH conditions (e.g. 4.5 and 6.8), 37° C.): not soluble
SMILES: CCC/N=C1\S/C(=C\c2ccc(OC[C@H](O)CO)c(Cl)c2)C(=O)N1c1ccccc1C [Ponesimod, (R)-5-[3-chloro-4-(2,3-dihydroxy-propoxy)-benz[Z]ylidene]-2-([Z]-propylimino)-3-o-tolyl-thiazolidin-4-one]
